In data set [1] the test system is MDA-MB-231 human breast adenocarcinoma cells. Kind of data set: Cell growth inhibition assay (CyQuant direct cell proliferation), breast adenocarcinoma. It counts as cell-based. The note with it: human breast adenocarcinoma cell line, 72 h drug exposure, average of six independent determinations, read-out: IC50 ± SEM, MDA-MB 231. The protocol:
(§1) The prepared homodimers 11–15 were evaluated for their in vitro cytotoxic activity using a conventional fluorescence assay (Cyquant direct cell proliferation assays), against primary mouse embryo fibroblast cell line MEF and two cancer cells lines: […] human breast adenocarcinoma and B16-F10 murine metastatic melanoma cells, in 72 h drug exposure assays. Monoamination products 6–10 were included in these preliminary assays. […] Etoposide and taxol, used clinically as anticancer agents, were taken as positive controls.
(§2) The cell lines used in this work included MDA-MB-231 human breast adenocarcinoma cells, B16-F10 mouse melanoma cells and MEF primary mouse embryonic fibroblasts. Cells were grown in DMEM high glucose medium (Mediatech, Manassas, VA, USA) supplemented with 10% (MDA-MB-231, and B16-F10) or 15% (MEF) heat-inactivated fetal bovine serum (HyClone laboratories, South Logan, UT, USA), 100 IU/mL penicillin and 100 μg/mL streptomycin, kept at 37 °C in a 5% CO2 humidified atmosphere. For the experiments, a total of 5.000 cells/well were seeded on a flat-bottomed 96-well plate with 200 μL final volume. Six hours after seeding, the cells were incubated with the medium containing the compounds at concentrations ranging from 0 up to 100 μM dissolved in DMSO (0.1% final concentration) for 72 h. The concentrations used to calculate the IC50 values were 100.0, 30.0, 10.0, 3.0, 1.0, 0.3, 0.1, 0.01 and 0.0 μM. Untreated cells (medium containing 0.1% DMSO) were used as controls. At the end of the incubation, cell viability was measured using CyQuant® direct cell proliferation assay kits (Life Technologies, Carlsbad, CA, USA) in accordance with the manufacturer’s instructions. Briefly, 100 μL of culture medium containing the compounds under evaluation was removed from each well and replaced by 2X detection reagent. The cells were incubated for 1 h and fluorescence emission was measured at 535 nm with excitation at 480 nm in a microplate reader (Infinite 200 PRO, Tecan, Männedorf, Switzerland). At least four independent experiments were performed for each concentration. Each result was transformed to percentage of controls and the IC50 values were obtained graphically from the dose–response curves. The IC50 value was obtained by adjusting the dose–response curve to a sigmoidal curve (variable slope) generated using GraphPad Prisma 6.0 software (La Jolla, CA, USA).

The test system of data set [2] is MEF primary mouse embryonic fibroblasts. Kind of data set: Cell growth inhibition assay (CyQuant direct cell proliferation), normal fibroblasts. It counts as cell-based. Conditions: normal mouse embryo fibroblast cell line; 72 h drug exposure; average of six independent determinations; read-out: IC50 ± SEM, MEF. As for the experimental part: as §1, §2
Data set [3] relates to B16-F10 mouse melanoma cells. Put plainly: Cell growth inhibition assay (CyQuant direct cell proliferation), melanoma. It counts as cell-based. Conditions: murine metastatic melanoma cell line, 72 h drug exposure, average of six independent determinations, read-out: IC50 ± SEM, B16-F10. As for the experimental part:
as §1, §2

The subject of data set [4] is MDA-MB-231 and B16-F10 tumor cells (versus MEF fibroblasts). Put plainly: Cell growth inhibition assay, mean over the two tumor cell lines and selectivity versus fibroblasts. It counts as cell-based. Conditions: for SI (mean selectivity index): IC50 values for fibroblast cells / IC50 values for tumor cells (mean IC50); for IC50: mean of the IC50 values of the two tumor cell lines MDA-MB 231 and B16-F10, 72 h. The protocol:
as §1, §2

As usually defined, the IC50 is the concentration at which inhibition is half-maximal. Usually melting point stands for the temperature, or range, at which the solid turns liquid.

Read-outs that look alike come from different tables or passages of the source.

In the case of “4-Acetyl-6-((4-(4-aminobenzyl)phenyl)amino)-3-methylisoquinoline-5,8-dione [Compound 10]”, the IC50 in data set [1] came out at 2.75 ± 0.42 µM; in data set [2] it was 5.14 ± 0.69 µM; in data set [3], 2.17 ± 0.37 µM; in data set [4] it was 2.46 µM. The “SI (mean selectivity index)” value in data set [4] worked out at 2.09.
With `COC(=O)c1c(C)nc(C)c2c1C(=O)C=C(Nc1ccc(Cc3ccc(N)cc3)cc1)C2=O` [Compound 6], the melting point is 149 to 150 °C. Moreover, the IC50 in data set [1] (MDA-MB-231) was 2.46 ± 0.39 µM. Moreover, the IC50 in data set [2] was 8.87 ± 0.88 µM. Further, in data set [3] (Mus musculus, B16-F10), the IC50 came out at 6.16 ± 0.88 µM. Further, it took 4.31 µM to reach half-maximal inhibition in data set [4] (Fibroblast) (IC50). In addition, the “SI (mean selectivity index)” value in data set [4] came to 2.06.
As for `CC(=O)c1c(C)nc(C)c2c1C(=O)C=C(Nc1ccc(Cc3ccc(N)cc3)cc1)C2=O` [Compound 7], the IC50 in data set [1] came out at 19.5 ± 1.46 µM; in data set [2], 15.4 ± 1.97 µM; in data set [3], 7.14 ± 0.95 µM; in data set [4], 13.3 µM. Also, the “SI (mean selectivity index)” value in data set [4] is 1.15.
Turning to `COC(=O)c1c(C)ncc2c1C(=O)C=C(Nc1ccc(Cc3ccc(N)cc3)cc1)C2=O` [Compound 8], the melting point was 83 to 84 °C. For the same compound, the IC50 in data set [1] (MDA-MB-231) was 1.45 ± 0.31 µM. Also, the IC50 in data set [2] came to 5.54 ± 0.82 µM. The half-inhibitory concentration (IC50) in data set [3] (Mus musculus, B16-F10) came out at 3.31 ± 0.47 µM. This compound came in with a 50% inhibitory concentration (IC50) in data set [4] (Fibroblast) of 2.38 µM. Also, in data set [4], the “SI (mean selectivity index)” value was found to be 2.33.
`CC(=O)c1c(C)ncc2c1C(=O)C=C(Nc1ccc(Cc3ccc(N)cc3)cc1)C2=O` [Compound 9]: the IC50 came to 1.59 ± 0.37 µM in data set [1], 2.79 ± 0.44 µM in data set [2], 0.76 ± 0.21 µM in data set [3] and 1.18 µM in data set [4]. In addition, the “SI (mean selectivity index)” value in data set [4] turned out to be 2.36.
The compound `COC(=O)c1c(C)nc(C)c2c1C(=O)C=C(Nc1ccc(Cc3ccc(NC4=CC(=O)c5c(C(=O)OC)c(C)nc(C)c5C4=O)cc3)cc1)C2=O` [Compound 11] yielded a melting point of 199 to 200 °C. Moreover, in data set [1] (MDA-MB-231), the half-inhibitory concentration (IC50) amounted to 66.9 ± 6.13 µM. In addition, in data set [2], the IC50 is > 100 µM. In addition, the IC50 in data set [3] (Mus musculus, B16-F10) was > 100 µM. The “SI (mean selectivity index)” value in data set [4] is recorded as 0.30.
Take `CC(=O)c1c(C)nc(C)c2c1C(=O)C=C(Nc1ccc(Cc3ccc(NC4=CC(=O)c5c(C(C)=O)c(C)nc(C)c5C4=O)cc3)cc1)C2=O` [Compound 12, 7,7′-(4,4′-Methylenebis(4,1-phenylene)bis(azanediyl))bis(4-acetyl-1,3-dimethylisoquinoline-5,8-dione)]: the IC50 in data set [1] amounted to 55.6 ± 5.95 µM; in data set [2], 71.6 ± 6.39 µM; in data set [3] it was 48.6 ± 4.42 µM; in data set [4], 52.1 µM. For the same compound, the “SI (mean selectivity index)” value in data set [4] stood at 1.37.
`COC(=O)c1c(C)ncc2c1C(=O)C=C(Nc1ccc(Cc3ccc(NC4=CC(=O)c5c(cnc(C)c5C(=O)OC)C4=O)cc3)cc1)C2=O` [Compound 13, Dimethyl-7,7′-(4,4′-methylenebis(4,1-phenylene)bis(azanediyl))bis(3-methyl-5,8-dioxo-5,8-dihydroisoquinoline-4-carboxylate)]: the 50% inhibitory concentration (IC50) turned out to be 24.8 ± 4.78 µM in data set [1] (MDA-MB-231); 79.8 ± 9.27 µM in data set [2]; 66.3 ± 5.61 µM in data set [3] (Mus musculus, B16-F10); 45.6 µM in data set [4] (Fibroblast). For the same compound, the “SI (mean selectivity index)” value in data set [4] is 1.75.
Regarding `CC(=O)c1c(C)ncc2c1C(=O)C=C(Nc1ccc(Cc3ccc(NC4=CC(=O)c5c(cnc(C)c5C(C)=O)C4=O)cc3)cc1)C2=O` [Compound 14, 7,7′-(4,4′-Methylenebis(4,1-phenylene)bis(azanediyl))bis(4-acetyl-3-methylisoquinoline-5,8-dione)], the IC50 in data set [1] was determined as 7.98 ± 1.43 µM; in data set [2] it was 32.8 ± 3.38 µM; in data set [3], 5.83 ± 0.73 µM; in data set [4], 6.91 µM. In addition, in data set [4], the “SI (mean selectivity index)” value is 4.74.
Turning to `COC(=O)c1c(C)ncc2c1C(=O)C=C(Nc1ccc(Cc3ccc(NC4=CC(=O)c5cnc(C)c(C(=O)OC)c5C4=O)cc3)cc1)C2=O` [Compound 15, Methyl-7-(4-(4-(4-(methoxycarbonyl)-3-methyl-5,8-dioxo-5,8-dihydroisoquinolin-6-ylamino)benzyl)phenylamino)-3-methyl-5,8-dioxo-5,8-dihydroisoquinoline-4-carboxylate], the melting point fell in the range of 191 to 192 °C. In addition, the IC50 in data set [1] (MDA-MB-231) worked out at 0.29 ± 0.05 µM. Moreover, the IC50 in data set [2] stood at 2.58 ± 0.33 µM. Moreover, the IC50 in data set [3] (Mus musculus, B16-F10) was 0.45 ± 0.08 µM. This compound also showed an IC50 in data set [4] (Fibroblast) of 0.37 µM. In data set [4], the “SI (mean selectivity index)” value is 6.97.
`COc1cc([C@@H]2c3cc4c(cc3[C@@H](O[C@@H]3O[C@@H]5CO[C@@H](C)O[C@H]5[C@H](O)[C@H]3O)[C@H]3COC(=O)[C@H]23)OCO4)cc(OC)c1O` [Etoposide, reference compound]: the IC50 in data set [1] (MDA-MB-231) amounted to 5.34 ± 0.12 µM; in data set [2], 1.18 ± 0.4 µM; in data set [3] (Mus musculus, B16-F10), 2 ± 0.44 µM; in data set [4] (Fibroblast) it was 3.67 µM. Moreover, the “SI (mean selectivity index)” value in data set [4] came out at 0.32.
Taken in the same sequence, the figures for `CC(=O)O[C@H]1C(=O)[C@@]2(C)[C@H]([C@H](OC(=O)c3ccccc3)[C@]3(O)C[C@H](OC(=O)[C@H](O)[C@@H](NC(=O)c4ccccc4)c4ccccc4)C(C)=C1C3(C)C)[C@]1(OC(C)=O)CO[C@@H]1C[C@@H]2O` [Taxol, reference compound] were 0.32 ± 0.07 µM, 0.32 ± 0.05 µM, 0.38 ± 0.06 µM, 0.35 µM and 0.91.

The values are drawn from PMC6100386, “Preparation of Novel Homodimers Derived from Cytotoxic Isoquinolinequinones. A Twin Drug Approach” (Molecules : A Journal of Synthetic Chemistry and Natural …, 2018).
